# From article PMC9570995, “Design, Synthesis, and Biological Evaluation of Novel Dihydropyridine and Pyridine Analogs as Potent Human Tissue Nonspecific Alkaline Phosphatase Inhibitors with Anticancer Activity: ROS and DNA Damage-Induced Apoptosis” (Molecules, 2022)
# Like-named read-outs stand apart in the source and are kept apart here.
# Target: T1, human tissue nonspecific alkaline phosphatase (h-TNAP) (Homo sapiens, UniProt P05186)
# T1 sequence (P05186 18-524): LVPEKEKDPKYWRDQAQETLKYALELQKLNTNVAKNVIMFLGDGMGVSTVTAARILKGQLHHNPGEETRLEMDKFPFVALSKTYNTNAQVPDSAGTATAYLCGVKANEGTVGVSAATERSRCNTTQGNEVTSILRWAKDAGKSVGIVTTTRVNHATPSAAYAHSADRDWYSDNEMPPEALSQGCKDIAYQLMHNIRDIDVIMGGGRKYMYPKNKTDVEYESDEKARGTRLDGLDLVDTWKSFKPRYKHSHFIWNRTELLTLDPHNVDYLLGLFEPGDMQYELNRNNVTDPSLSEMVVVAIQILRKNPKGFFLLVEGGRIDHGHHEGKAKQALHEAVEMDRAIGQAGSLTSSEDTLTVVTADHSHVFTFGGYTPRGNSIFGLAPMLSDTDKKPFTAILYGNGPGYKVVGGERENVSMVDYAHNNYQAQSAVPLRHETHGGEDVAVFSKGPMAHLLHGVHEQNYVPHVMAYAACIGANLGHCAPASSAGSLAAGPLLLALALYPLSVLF
# Test: Alkaline phosphatase inhibition assay (p-NPP substrate)
# Type: biochemical
# Experimental: The newly synthesized compounds were tested against human tissue nonspecific alkaline phosphatase (h-TNAP). The compounds were initially tested against the h-TNAP enzymes at 1 mM concentration. The assay buffer (pH 9.5) constituted of 50% glycerol, followed by tris-hydrochloride (50.0 mM), MgCl2 (5.0 mM), and ZnCl2 (0.1 mM) in the solution. The enzyme substrate p-nitrophenyl phosphate (p-NPP) and all the required test compounds were diluted to the required concentration by a dilution buffer method. In a 96-well plate, the assay was started by adding 70 µL of assay buffer followed by 10.0 µL of the test compound (from 1 mM), 10.0 µL of the enzyme (0.5 µL/mL) and then subsequently incubating at 37 °C for 10 min. The reaction was initiated with the addition of 10.0 µL of substrate (5.0 mM p-NPP) into each well and incubated for an additional 30 min.
# Percent inhibition was calculated by the formula:% Inhibition = [100 − (abs of test comp/abs of control) × 100]
smiles,measurement,setting,value
"N#CC1=C(N)N(Cc2ccccc2)C(N)=C(C#N)C1c1ccc2ccccc2c1 [Compound 4d, 2,6-Diamino-1-benzyl-4-(naphthalen-2-yl)-1,4-dihydropyridine-3,5-dicarbonitrile]",IC50,"Table 2, unit given in Table 1, read-out: Alkaline Phosphatase (h-TNAP) IC50",1.32 ± 0.26 µM
same,fold more potent than levamisole,h-TNAP IC50 compared with levamisole,about seventeen-fold
same,IC50,"h-TNAP, assay buffer pH 9.5, Table 1 and text, read-out: IC50 + SEM",1.32 ± 0.26 µM
